Data as given in US11091522B2, “Peptidomimetic macrocycles and uses thereof” (priority 2018, dated 2021).

What was measured:
p21 = p21 ELISA assay in SJSA-1 cells; type: cell-based, human; conditions: SJSA-1 osteosarcoma cells
Description: SJSA-1 cells were trypsinized, counted, and seeded at a density of 7500 cells/100 μL/well in 96-well plates one day prior to running the assay. […] 90 μL of the assay media was added to each well. The control wells contained no cells and received 100 μL of the assay media.
10 mM stock solutions of the peptides were prepared in DMSO. […] A DMSO/sterile water (3% DMSO) solution was prepared for use in the control wells. The working stock solution concentration range was 300 μM, 100 μM, 30 μM, 10 μM, 3 μM, 1 μM, 0.3 μM, and 0 μM. Each solution was mixed well at each dilution step using a multichannel pipette. Row H contained the control wells. Wells H1-H3 received 10 μL of the assay media. Wells H4-H9 received 10 μL of the 3% DMSO-water solution. Wells H10-H12 received media alone and contained no cells.
10 μL of a 10× peptide solution was added to the appropriate well to achieve a final concentration in a volume of 100 μL. For example, 10 μL of 300 μM peptide+90 μL of cells in media=30 μM final concentration in 100 μL volume in wells. The final concentration range used was 30 μM, 10 μM, 3 μM, 1 μM, 0.3 μM, and 0 μM.
20 h after incubation, the media was aspirated from the wells. […] The total protein contents of the lysates were measured using a BCA protein detection kit and BSA standards. […]

MCF7 tumor = type: in vivo; conditions: twice-weekly treatment, dose-dependent TGI
Description: SJSA1 harbors DNA amplification of both MDM2 and CDK4 genes, which neighbor one another on chromosome 12q, while MCF7 harbors a deletion of the CDKN2A gene, the product of which is a natural inhibitor of MDM2 and CDK4. […]

[1] = Safety pharmacology, cardiac function; type: in vivo; conditions: cynomolgus monkeys
[2] = test system: SJSA1 tumor cell proliferation; experiment: Edu incorporation assay in SJSA1 xenograft tumors; type: in vivo, mice; conditions: day 9; AP1 BIW days 1, 4, 8; palbociclib QD×8
Description: […]. The tumors were then homogenized and assayed by flow cytometry. […].

E2F1 mRNA = conditions: SJSA1, following wash-out

Question: What does the source list for `CC(=O)N[C@@H](CC(C)C)C(=O)N[C@H](C(=O)N[C@@H](Cc1ccccc1)C(=O)N[C@]1(C)CCCCCC/C=C\CCC[C@@](C)(C(=O)N[C@@H](C)C(=O)N[C@@H](C)C(=O)N[C@@H](C)C(=O)N[C@@H](C)C(=O)N[C@@H](C)C(=O)N[C@H](C)C(N)=O)NC(=O)[C@H](CC(C)C)NC(=O)[C@H](CCC(N)=O)NC(=O)[C@H](C)NC(=O)[C@H](Cc2c[nH]c3ccccc23)NC(=O)[C@H](Cc2ccc(O)cc2)NC(=O)[C@H](CCC(=O)O)NC1=O)[C@@H](C)O` [AP1]?
Answer: p21 protein (p21): concentration-dependent increase in p21 protein; minimum efficacious dose (MED) (MCF7 tumor): 5 mg/kg; effects on cardiac function [1]: No significant adverse findings; tumor cell proliferation (Edu incorporation, flow cytometry) [2]: decreased cell proliferation; E2F1 mRNA (E2F1 mRNA): did not exhibit repression of E2F1 mRNA
